The values that follow come from patent US10399940B2, “Substituted pyrrolidines and methods of use” (AbbVie S.à.r.l., priority 2016, dated 2019).

The assay addresses T1, F508delCFTR (Homo sapiens, UniProt P13569, DEL508-508).
T1 construct: expressed in transfected cells; host or cells: CFBE41o- (human lung derived epithelial cell line), doxycycline-inducible expression
Briefly: Cell Surface Expression-Horse Radish Peroxidase (CSE-HRP) assay. It is filed as cell-based. As to conditions: CFBE41o-F508delCFTR-HRP cells; for Maximum % activity (with co-corrector): with co-corrector (2 μM); for Maximum % activity (with co-corrector) / Maximum % activity (without co-corrector): normalized to on-plate positive control, highest concentration 20 μM. Put shortly: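 Surface F508delCFTR-HRP was read by luminol luminescence after 18–24 h compound exposure at 33 °C, without or with 2 μM co-corrector. Doses were eight 3-fold steps from 20 μM, in doxycycline-induced (0.5 μg/mL, 72 h) CFBE41o- cells. % activity was scaled to the on-plate 2 μM positive control minus DMSO; EC50 came from a variable-slope sigmoid fit.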

The mark [1] stands for this setting: test compound without co-corrector, 18-24 hours at 33° C., read-out: EC50 (without co-corrector).
The mark [2] stands for this setting: with co-corrector (2 μM of 3-[(2R,4R)-4-({[1-(2,2-difluoro-1,3-benzodioxol-5-yl)cyclopropyl]carbonyl}amino)-7-methoxy-3,4-dihydro-2H-chromen-2-yl]benzoic acid), read-out: EC50 (with co-corrector).

Where two headings read alike, the source gives them in different places. Where only a bound is given, the exact number is not on record here.

T1 sequence (P13569 with tags, fused parts or gaps DEL508-508): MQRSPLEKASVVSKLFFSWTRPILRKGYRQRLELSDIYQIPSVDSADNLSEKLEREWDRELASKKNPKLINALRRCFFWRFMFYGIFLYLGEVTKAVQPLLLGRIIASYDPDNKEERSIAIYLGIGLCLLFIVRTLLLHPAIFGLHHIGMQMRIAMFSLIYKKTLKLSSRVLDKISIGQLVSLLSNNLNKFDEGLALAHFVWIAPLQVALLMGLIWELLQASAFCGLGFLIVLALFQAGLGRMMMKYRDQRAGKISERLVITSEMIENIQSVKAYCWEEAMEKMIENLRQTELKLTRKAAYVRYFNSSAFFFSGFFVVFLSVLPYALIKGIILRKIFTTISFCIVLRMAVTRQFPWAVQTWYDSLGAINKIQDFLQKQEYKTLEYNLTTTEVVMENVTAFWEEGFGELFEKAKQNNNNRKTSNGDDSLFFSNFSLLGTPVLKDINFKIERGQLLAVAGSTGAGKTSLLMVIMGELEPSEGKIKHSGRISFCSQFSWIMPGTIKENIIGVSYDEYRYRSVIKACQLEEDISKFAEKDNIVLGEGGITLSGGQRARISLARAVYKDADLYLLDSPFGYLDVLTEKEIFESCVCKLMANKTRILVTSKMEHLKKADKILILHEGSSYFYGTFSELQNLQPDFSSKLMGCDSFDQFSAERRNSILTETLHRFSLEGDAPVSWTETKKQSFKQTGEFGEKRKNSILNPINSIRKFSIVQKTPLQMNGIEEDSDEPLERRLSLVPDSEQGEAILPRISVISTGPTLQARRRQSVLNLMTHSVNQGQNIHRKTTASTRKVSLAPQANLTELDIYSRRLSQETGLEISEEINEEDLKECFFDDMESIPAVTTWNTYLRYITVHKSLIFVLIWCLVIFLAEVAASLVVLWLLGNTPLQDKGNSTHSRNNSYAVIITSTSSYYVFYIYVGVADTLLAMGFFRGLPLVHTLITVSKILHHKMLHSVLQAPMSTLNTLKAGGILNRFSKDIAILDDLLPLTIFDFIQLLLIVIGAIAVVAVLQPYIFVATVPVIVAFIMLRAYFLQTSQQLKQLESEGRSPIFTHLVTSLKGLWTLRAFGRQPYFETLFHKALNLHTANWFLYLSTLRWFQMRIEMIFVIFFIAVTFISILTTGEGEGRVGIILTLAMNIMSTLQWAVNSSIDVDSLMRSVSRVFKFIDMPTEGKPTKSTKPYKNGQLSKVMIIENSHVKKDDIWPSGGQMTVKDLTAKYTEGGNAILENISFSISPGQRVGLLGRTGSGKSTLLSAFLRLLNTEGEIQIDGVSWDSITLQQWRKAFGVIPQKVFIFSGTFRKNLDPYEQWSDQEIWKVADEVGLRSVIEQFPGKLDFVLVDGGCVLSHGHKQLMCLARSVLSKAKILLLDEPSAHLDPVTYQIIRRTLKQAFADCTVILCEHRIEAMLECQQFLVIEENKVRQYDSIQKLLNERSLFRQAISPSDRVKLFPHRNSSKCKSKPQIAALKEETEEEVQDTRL

Take `COc1ncc(C(F)(F)F)cc1CO[C@H]1[C@H](C(C)(C)C)[C@@H](C(=O)O)N(C(=O)[C@@H]2CCCCO2)[C@H]1c1ccccc1-c1cccc(Cl)c1` [Example 191, (2S,3R,4S,5S)-3-tert-butyl-5-(3′-chloro[1,1′-biphenyl]-2-yl)-4-{[2-methoxy-5-(trifluoromethyl)pyridin-3-yl]methoxy}-1-[(2S)-oxane-2-carbonyl]pyrrolidine-2-carboxylic acid]: the “Maximum % activity (with co-corrector)” value is “+++ (≥350)” and the “Maximum % activity (without co-corrector)” value was “+++ (≥200)”. The concentration giving a half-maximal response (EC50) under setting [1] is 1 to 10 µM. In addition, under setting [2], the EC50 was in the range of 1 to 10 µM.

For `COc1ncc(C(F)(F)F)cc1CO[C@H]1[C@H](C(C)(C)C)[C@@H](C(=O)O)N(C(=O)[C@@H]2CCCCO2)[C@H]1c1ccccc1C1=CCN(C)CC1` [Example 192, (2S,3R,4S,5S)-3-tert-butyl-4-{[2-methoxy-5-(trifluoromethyl)pyridin-3-yl]methoxy}-5-[2-(1-methyl-1,2,3,6-tetrahydropyridin-4-yl)phenyl]-1-[(2S)-oxane-2-carbonyl]pyrrolidine-2-carboxylic acid], the “Maximum % activity (with co-corrector)” value is “++ (≥150 and <350)”; the “Maximum % activity (without co-corrector)” value was “+ (<100)”. Also, under setting [1], the EC50 fell in the range of 1 to 10 µM. Also, the 50% effective concentration (EC50) under setting [2] lay in the range of 1 to 10 µM.

Take `COc1ncc(C(F)(F)F)cc1CO[C@H]1[C@H](C(C)(C)C)[C@@H](C(=O)O)N(C(=O)[C@@H]2CCCCO2)[C@H]1c1ccccc1-c1cnn(C)c1` [Example 193, (2S,3R,4S,5S)-3-tert-butyl-4-{[2-methoxy-5-(trifluoromethyl)pyridin-3-yl]methoxy}-5-[2-(1-methyl-1H-pyrazol-4-yl)phenyl]-1-[(2S)-oxane-2-carbonyl]pyrrolidine-2-carboxylic acid]: the “Maximum % activity (with co-corrector)” value is given as “+++ (≥350)”; the “Maximum % activity (without co-corrector)” value is “++ (≥100 and <200)”. The 50% effective concentration (EC50) under setting [1] fell in the range of 1 to 10 µM. For the same molecule, the EC50 under setting [2] fell in the range of 1 to 10 µM.

As for `COc1ncc(C(F)(F)F)cc1CO[C@H]1[C@H](C(C)(C)C)[C@@H](C(=O)O)N(C(=O)[C@@H]2CCCCO2)[C@H]1c1ccccc1-c1cccc(N(C)C)c1` [Example 194, (2S,3R,4S,5S)-3-tert-butyl-5-[3′-(dimethylamino) [1,1′-biphenyl]-2-yl]-4-{[2-methoxy-5-(trifluoromethyl)pyridin-3-yl]methoxy}-1-[(2S)-oxane-2-carbonyl]pyrrolidine-2-carboxylic acid], the “Maximum % activity (with co-corrector)” value is recorded as “+++ (≥350)” and the “Maximum % activity (without co-corrector)” value is listed as “+++ (≥200)”. Further, the half-maximal effective concentration (EC50) under setting [1] is 1 to 10 µM. In addition, under setting [2], the EC50 was less than 1 µM.

Take `COc1ncc(C(F)(F)F)cc1CO[C@H]1[C@H](C(C)(C)C)[C@@H](C(=O)O)N(C(=O)[C@@H]2CCCCO2)[C@H]1c1ccccc1-c1ccccc1C` [Example 195, (2S,3R,4S,5S)-3-tert-butyl-4-{[2-methoxy-5-(trifluoromethyl)pyridin-3-yl]methoxy}-5-(2′-methyl[1,1′-biphenyl]-2-yl)-1-[(2S)-oxane-2-carbonyl]pyrrolidine-2-carboxylic acid]: the “Maximum % activity (with co-corrector)” value is “+++ (≥350)” and the “Maximum % activity (without co-corrector)” value was “+++ (≥200)”. Besides, the EC50 under setting [1] was 1 to 10 µM. The concentration giving a half-maximal response (EC50) under setting [2] was 1 to 10 µM.

`COc1ncc(C(F)(F)F)cc1CO[C@H]1[C@H](C(C)(C)C)[C@@H](C(=O)O)N(C(=O)[C@@H]2CCCCO2)[C@H]1c1ccccc1-c1ccncc1` [Example 196, (2S,3R,4S,5S)-3-tert-butyl-4-{[2-methoxy-5-(trifluoromethyl)pyridin-3-yl]methoxy}-1-[(2S)-oxane-2-carbonyl]-5-[2-(pyridin-4-yl)phenyl]pyrrolidine-2-carboxylic acid]: the “Maximum % activity (with co-corrector)” value is reported as “+++ (≥350)”; the “Maximum % activity (without co-corrector)” value was “++ (≥100 and <200)”. The concentration giving a half-maximal response (EC50) under setting [1] lay in the range of 1 to 10 µM. In addition, the EC50 under setting [2] was 1 to 10 µM.

As to `COc1ncc(C(F)(F)F)cc1CO[C@H]1[C@H](C(C)(C)C)[C@@H](C(=O)O)N(C(=O)[C@@H]2CCCCO2)[C@H]1c1ccccc1-c1cncnc1` [Example 197, (2S,3R,4S,5S)-3-tert-butyl-4-{[2-methoxy-5-(trifluoromethyl)pyridin-3-yl]methoxy}-1-[(2S)-oxane-2-carbonyl]-5-[2-(pyrimidin-5-yl)phenyl]pyrrolidine-2-carboxylic acid], the “Maximum % activity (with co-corrector)” value was “++ (≥150 and <350)”; the “Maximum % activity (without co-corrector)” value is listed as “+ (<100)”. In addition, the half-maximal effective concentration (EC50) under setting [1] was 1 to 10 µM. The EC50 under setting [2] lay in the range of 1 to 10 µM.

Consider `COc1ncc(C(F)(F)F)cc1CO[C@H]1[C@H](C(C)(C)C)[C@@H](C(=O)O)N(C(=O)[C@@H]2CCCCO2)[C@H]1c1ccccc1-c1ccoc1` [Example 198, (2S,3R,4S,5S)-3-tert-butyl-5-[2-(furan-3-yl)phenyl]-4-{[2-methoxy-5-(trifluoromethyl)pyridin-3-yl]methoxy}-1-[(2S)-oxane-2-carbonyl]pyrrolidine-2-carboxylic acid], for which the “Maximum % activity (with co-corrector)” value is on record as “+++ (≥350)” and the “Maximum % activity (without co-corrector)” value is on record as “+++ (≥200)”. Besides, the EC50 under setting [1] lay in the range of 1 to 10 µM. The EC50 under setting [2] was 1 to 10 µM.

With `COc1ncc(C(F)(F)F)cc1CO[C@H]1[C@H](C(C)(C)C)[C@@H](C(=O)O)N(C(=O)[C@@H]2CCCCO2)[C@H]1c1ccccc1-c1ccn(C)c1` [Example 199, (2S,3R,4S,5S)-3-tert-butyl-4-{[2-methoxy-5-(trifluoromethyl)pyridin-3-yl]methoxy}-5-[2-(1-methyl-1H-pyrrol-3-yl)phenyl]-1-[(2S)-oxane-2-carbonyl]pyrrolidine-2-carboxylic acid], the “Maximum % activity (with co-corrector)” value is listed as “+++ (≥350)” and the “Maximum % activity (without co-corrector)” value is “+++ (≥200)”. Under setting [1], the half-maximal effective concentration (EC50) lay within 1 to 10 µM. The EC50 under setting [2] lay within 1 to 10 µM.

Turning to `COc1ncc(C(F)(F)F)cc1CO[C@H]1[C@H](C(C)(C)C)[C@@H](C(=O)O)N(C(=O)[C@@H]2CCCCO2)[C@H]1c1ccccc1-c1ccccc1Cl` [Example 200, (2S,3R,4S,5S)-3-tert-butyl-5-(2′-chloro[1,1′-biphenyl]-2-yl)-4-{[2-methoxy-5-(trifluoromethyl)pyridin-3-yl]methoxy}-1-[(2S)-oxane-2-carbonyl]pyrrolidine-2-carboxylic acid], the “Maximum % activity (with co-corrector)” value is “+++ (≥350)” and the “Maximum % activity (without co-corrector)” value is given as “+++ (≥200)”. Also, the concentration giving a half-maximal response (EC50) under setting [1] is 1 to 10 µM. In addition, the 50% effective concentration (EC50) under setting [2] is less than 1 µM.

`COc1ncc(C(F)(F)F)cc1CO[C@H]1[C@H](C(C)(C)C)[C@@H](C(=O)O)N(C(=O)[C@@H]2CCCCO2)[C@H]1c1ccccc1-c1cccc(OC(F)(F)F)c1` [Example 201, (2S,3R,4S,5S)-3-tert-butyl-4-{[2-methoxy-5-(trifluoromethyl)pyridin-3-yl]methoxy}-1-[(2S)-oxane-2-carbonyl]-5-[3′-(trifluoromethoxy) [1,1′-biphenyl]-2-yl]pyrrolidine-2-carboxylic acid]: the “Maximum % activity (with co-corrector)” value is recorded as “+++ (≥350)” and the “Maximum % activity (without co-corrector)” value was “+++ (≥200)”. Besides, the EC50 under setting [1] is 1 to 10 µM. Besides, the concentration giving a half-maximal response (EC50) under setting [2] was 1 to 10 µM.

Turning to `COc1ncc(C(F)(F)F)cc1CO[C@H]1[C@H](C(C)(C)C)[C@@H](C(=O)O)N(C(=O)[C@@H]2CCCCO2)[C@H]1c1ccccc1-c1ccc(Cl)cc1` [Example 202, (2S,3R,4S,5S)-3-tert-butyl-5-(4′-chloro[1,1′-biphenyl]-2-yl)-4-{[2-methoxy-5-(trifluoromethyl)pyridin-3-yl]methoxy}-1-[(2S)-oxane-2-carbonyl]pyrrolidine-2-carboxylic acid], the “Maximum % activity (with co-corrector)” value is “+++ (≥350)” and the “Maximum % activity (without co-corrector)” value is “+++ (≥200)”. Moreover, the half-maximal effective concentration (EC50) under setting [1] lay in the range of 1 to 10 µM. For the same molecule, under setting [2], the EC50 lay within 1 to 10 µM.

Consider `COc1ncc(C(F)(F)F)cc1CO[C@H]1[C@H](C(C)(C)C)[C@@H](C(=O)O)N(C(=O)[C@@H]2CCCCO2)[C@H]1c1ccccc1-c1ccc2c(c1)OCO2` [Example 203, (2S,3R,4S,5S)-5-[2-(2H-1,3-benzodioxol-5-yl)phenyl]-3-tert-butyl-4-{[2-methoxy-5-(trifluoromethyl)pyridin-3-yl]methoxy}-1-[(2S)-oxane-2-carbonyl]pyrrolidine-2-carboxylic acid], for which the “Maximum % activity (with co-corrector)” value is “+++ (≥350)” and the “Maximum % activity (without co-corrector)” value is “+++ (≥200)”. The concentration for a half-maximal effect (EC50) under setting [1] lay in the range of 1 to 10 µM. Moreover, the EC50 under setting [2] lay in the range of 1 to 10 µM.

With `COc1ncc(C(F)(F)F)cc1CO[C@H]1[C@H](C(C)(C)C)[C@@H](C(=O)O)N(C(=O)[C@@H]2CCCCO2)[C@H]1c1ccccc1-c1ccccc1F` [Example 204, (2S,3R,4S,5S)-3-tert-butyl-5-(2′-fluoro[1,1′-biphenyl]-2-yl)-4-{[2-methoxy-5-(trifluoromethyl)pyridin-3-yl]methoxy}-1-[(2S)-oxane-2-carbonyl]pyrrolidine-2-carboxylic acid], the “Maximum % activity (with co-corrector)” value was “+++ (≥350)” and the “Maximum % activity (without co-corrector)” value is “+++ (≥200)”. For the same molecule, the EC50 under setting [1] was in the range of 1 to 10 µM. Further, the EC50 under setting [2] is less than 1 µM.

In general, EC50 refers to the concentration that produces a half-maximal response.
